Assay results from patent publication US6756409B2, “Phenoxyphenyl alkanesulphonates” (priority 2001, dated 2004).

Key:
[1] = Microsomal stability investigations; format: in vitro ADME; details: maximum possible bioavailability extrapolated from rat liver microsomes, 37° C., 15 minutes
Description: 4. Microsomal Stability Investigations
The metabolic stability of the compounds according to the invention can be measured in rat liver microsomes (in analogy to J. Pharmacol. Exp. Ther. 1997, 283, 46-58).
To determine the microsomal stability and extrapolate to the maximum possible bioavailability (Fmax) owing to the first-pass effect in the liver (phase 1 reactions), the substance is incubated in low concentration with microsomal protein, with addition of cofactors, at 37° C. for 15 minutes.
The incubation and the sampling take place on a modified automatic pipettor from Canberra Packard.

[2] = biological target: T1, CB1 receptor (Rattus norvegicus, UniProt P20272); experiment: Rat hypothermia agonism test; format: in vivo; details: oral administration
T1 construct: from tissue; host or cells: whole animal (rat), in vivo
T1 sequence (P20272 whole entry): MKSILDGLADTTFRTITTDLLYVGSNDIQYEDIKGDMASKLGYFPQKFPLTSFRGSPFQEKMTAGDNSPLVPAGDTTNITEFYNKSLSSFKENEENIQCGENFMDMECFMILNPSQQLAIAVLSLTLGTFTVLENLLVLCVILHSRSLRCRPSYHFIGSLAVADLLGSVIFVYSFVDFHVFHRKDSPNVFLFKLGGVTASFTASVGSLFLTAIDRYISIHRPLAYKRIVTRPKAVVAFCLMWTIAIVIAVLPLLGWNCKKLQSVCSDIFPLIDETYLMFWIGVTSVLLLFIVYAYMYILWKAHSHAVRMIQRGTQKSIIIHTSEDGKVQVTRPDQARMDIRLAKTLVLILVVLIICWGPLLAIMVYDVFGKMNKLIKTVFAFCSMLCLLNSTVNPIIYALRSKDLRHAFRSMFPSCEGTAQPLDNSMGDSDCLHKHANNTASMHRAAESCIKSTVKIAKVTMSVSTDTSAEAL
Description: The in vivo agonistic effect on the CB1 receptor was examined in the rat hypothermia assay.
Five minutes after determining the basal body temperature via an oesophageal temperature probe, the test substance is administered (orally). A control group receives, likewise orally, only the solvent for the test substances (Cremophors EL 1-10%+distilled water). The body temperature is measured 120 and 240 minutes after oral administration. The size of the group for each dose is 5-7 animals (rats).
Rat Hypothermia Agonism Test

[3] = Pharmacokinetics in the rat; format: in vivo; details: for AUCstand / Cmax,stand: standardized to 1 mg/kg; for half-life: terminal half-life
Description: 5. Pharmacokinetics in the Rat
The substance is infused through a Braunüle in a lateral tail vein directly into the blood stream over 15 minutes. A calibrated 20 ml syringe is used for accurate administration of the chosen dose and volume. A Braun Melsungen No. 152440/1 pump is used for the infusion.
The substance is administered as bolus by gavage.
Blood samples are collected from catheterized animals (jugular vein) in heparinized tubes. The blood is centrifuged and the plasma is prepared in a suitable manner for analysis (LC-MS-MS). The plasma is stored at <−15° C. until analysed.
AUCstand: the area, standardized to a dose of 1 mg/kg, under the plasma concentration/time curve;
Cmax,stand: the maximum plasma concentration after a single administration, standardized to a dose of 1 mg/kg;
tmax: the time at which the maximum plasma concentration is reached after a single dose;
t1/2: terminal half-life;
F: bioavailability; in this case the percentage, compared with i.v. administration, of the dose which is systemically available;
VSS: apparent volume of distribution at the steady state.

[4] = system: chronic mechanical hyperalgesia in axotomized rats; experiment: Axotomy of sciatic branches in the rat (chronic pain model); format: in vivo; details: orally, acute administration, 60 minutes before the test
Description: 7. Axotomy of Sciatic Branches in the Rat (Chronic Pain Model)
Under pentobarbital anaesthesia, the trifurcation of a sciatic nerve is exposed, and the peroneal and tibial branches are axotomized after the nerves have been ligated proximal of the axotomy site. Control animals undergo a sham operation. After the operation, the axotomized animals develop chronic mechanical hyperalgesia. This hyperalgesia is tested, comparing with sham-operated animals, with the aid of a pressure transducer (electronic von Frey anesthesiometer, IITC Inc.—Life Science Instruments, Woodland Hills, Calif., USA).
The substance is administered by various administration routes (i.v., i.p., orally, i.t., i.c.v., transdermally) at various times before the pain testing.

[5] = biological target: T2, rat CB1 receptor (Rattus norvegicus, UniProt P20272); experiment: Rat CB1 luciferase reporter gene test; format: cell-based; details: rat CHOCB1 reporter cell line, forskolin-stimulated luciferase activity
T2 construct: expressed in transfected cells; host or cells: CHO (CHOluc9-derived reporter line, by analogy with the CB2 line)
T2 sequence (P20272 whole entry): as above
Description: 1. Rats CB1 Luciferase Reporter Gene Test
Stock cultures of a rat CHOCB1 reporter cell line were prepared by the method described in WO-A-98/37061, page 55 et seq.
The following test protocol was used for the substance screening: the stock cultures were cultivated in 50% of Dulbecco's modified Eagle medium/50% F-12 (DMEM/F12) with 10% FCS at 37° C. under 10% CO2 and split 1:10 after 2 to 3 days in each case. Test cultures were seeded with 5000 cells per well in 96-well plates and cultured at 37° C. for 70 hours. The cultures were then cautiously washed with phosphate-buffered saline and reconstituted with serum-free Ultra-CHO medium (Bio-Whittaker). The substances dissolved in DMSO were diluted 1× in medium and pipetted into the test cultures (maximum DMSO final concentration in test mixture: 0.5%). 20 minutes later, forskolin was added and the cultures were then incubated in an incubator at 37° C. for 3 hours. […] Immediately thereafter luciferase substrate solution (2.5 mM ATP, 0.5 mM luciferin, 0.1 mM coenzyme A, 10 mM tricine, 1.35 mM MgSO4, 15 mM DTT, pH 7.8) was added and briefly shaken, and the luciferase activity was measured using a Hamamatsu camera system. […]
The IC50 values were calculated using the GraphPadPrism program (Hill equation, specifically: one-site competition).

Row | SMILES | Fmax [1] | ED−1° C. (effective dose for reducing the body temperature by 1° C.) [2] | AUCstand ([3]; i.v. infusion, dose 0.3 mg/kg) | Cmax,stand ([3]; i.v. infusion, dose 0.3 mg/kg) | F ([3]; oral, dose 3 mg/kg, bioavailability compared with i.v. administration) | AUCstand ([3]; oral, dose 3 mg/kg) | Cmax,stand ([3]; oral, dose 3 mg/kg) | Vd ([3]; plasma, iv, i.v. infusion, dose 0.3 mg/kg, apparent volume of distribution at steady state, read-out: VSS) | half-life ([3]; plasma, iv, i.v. infusion, dose 0.3 mg/kg) | Tmax ([3]; plasma, oral, dose 3 mg/kg) | half-life ([3]; plasma, oral, dose 3 mg/kg) | minimally effective dose reducing hyperalgesia [4] | IC50 [5]
1 | Cc1c(Cl)cccc1Oc1cccc(OS(=O)(=O)CCCC(F)(F)F)c1 [Example 15] | 4% | – | – | – | – | – | – | – | – | – | – | – | –
2 | O=S(=O)(CCCC(F)(F)F)Oc1cccc(Oc2cccc(C(F)(F)F)c2Cl)c1 [Example 22] | – | 10 mg/kg | 0.307 kg·h/L | 0.5978 kg/L | 33% | 0.102 kg·h/L | 0.0198 kg/L | 4.12 L/kg | 1.6 h | 2.29 h | 2.36 h | 1 mg/kg | –
3 | O=S(=O)(CCCC(F)(F)F)Oc1cccc(Oc2ccccc2OC(F)(F)F)c1 [Example 17] | 40% | – | – | – | – | – | – | – | – | – | – | – | 0.81 nM
